Laboratory results published in patent US10654866B2, “Selective estrogen receptor degraders” (Eli Lilly and Company, priority 2018, dated 2020).
Read-outs that look alike come from different tables or passages of the source.

Experiments:
[1] = target: ERα (Y537S mutant) (Homo sapiens (Human), UniProt P03372, Y537S); assay: ERα (Y537S mutant) competition binding assay; settings: 3H-estradiol competition; Ki from IC50 by Cheng-Prusoff
Procedure: Add the test compound at 10 different concentrations ranging from 10,000 nM to 0.5 nM, and determine nonspecific binding in the presence of 1 μM of 1713 estradiol. Incubate the binding reaction (140 μL) for 4 hours at room temperature, and then add cold dextran-charcoal buffer (70 μL) (containing per 50 mL of assay buffer, 0.75 g of charcoal and 0.25 g of dextran) to each reaction. Mix the plates for 8 minutes on an orbital shaker at 4° C. and then centrifuge at 3000 rpm at 4° C. for 10 minutes. Transfer an aliquot (120 μL) of the mixture to another 96-well, white flat bottom plate (Costar) and add Perkin Elmer Optiphase Supermix scintillation fluid (175 μL) to each well. Seal the plates and shake vigorously on an orbital shaker. After an incubation of 2.5 hours, read the plates in a Wallac Microbeta counter. […] Convert the IC50 values for the compound to Ki using Cheng-Prusoff equation.

[2] = target: T1, ERα (Homo sapiens (Human), UniProt P03372); assay: ERα degradation assay in MCF7 cells; type: cell-based; settings: 24 hours, % ER positive cells, read-out: Relative IC50
T1 sequence (P03372 whole entry): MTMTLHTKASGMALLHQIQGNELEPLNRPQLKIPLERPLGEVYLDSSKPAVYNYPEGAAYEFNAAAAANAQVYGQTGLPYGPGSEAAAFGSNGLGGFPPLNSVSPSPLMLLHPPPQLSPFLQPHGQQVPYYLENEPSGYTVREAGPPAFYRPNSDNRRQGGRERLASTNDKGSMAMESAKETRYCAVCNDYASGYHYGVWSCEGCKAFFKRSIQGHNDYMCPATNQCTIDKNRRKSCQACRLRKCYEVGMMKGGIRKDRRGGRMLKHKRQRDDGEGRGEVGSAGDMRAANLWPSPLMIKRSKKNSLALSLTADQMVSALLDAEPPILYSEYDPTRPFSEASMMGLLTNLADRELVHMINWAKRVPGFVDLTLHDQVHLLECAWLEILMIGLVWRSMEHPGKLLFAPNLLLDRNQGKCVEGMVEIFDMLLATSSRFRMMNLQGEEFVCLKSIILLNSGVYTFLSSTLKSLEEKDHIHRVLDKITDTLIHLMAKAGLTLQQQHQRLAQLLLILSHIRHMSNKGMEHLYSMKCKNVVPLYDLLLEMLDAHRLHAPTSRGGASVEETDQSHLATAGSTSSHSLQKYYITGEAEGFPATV
Procedure: The purpose of the following ERα degradation assay is to measure the degradation of ERα by a test compound in an ERα positive breast cancer cell line such as MCF7.
Culture MCF7 (purchased from ATCC HTB-22) cells in DMEM media supplemented with 10% FBS, 0.01 mg/mL human insulin 1 and 1% penicillin/streptomycin antibiotics and plate in 384-well flat-bottom plates at a density of 4,000 cells per well in phenol red free DMEM media (20 μL) containing 10% charcoal stripped FBS. Incubate the cells overnight in a cell culture incubator (5% CO2, 95% relative humidity and 37° C.) and allow the cells to attach to the plate. The following day dose the cells with the test compound. Use an Echo 555 acoustic dispenser to prepare test compound serial dilutions (1:3) in a range from 6 μM to 0.0003 μM. Dose the cells with the addition of 5 μL from the serial dilution plate to the cell plate producing a final DMSO concentration of 0.2% with a final test compound concentration dose range between 2 and 0.0001 μM. For the maximum point, use media containing 0.2% of DMSO and for the minimum point, use fulvestrant diluted at 2 μM final concentrations in the growth media containing 0.2% DMSO. After dosing with the test compound, incubate the cell plates at 37° C. and 5% CO2 for 24 hours. Fix the cells by adding 14% para-formaldehyde (10 μL) for 30 minutes at room temperature. Wash the cells once with PBS (20 μL) and incubate with PBS (20 μL) containing 0.5% (v/v) TWEEN® 20 for 1 hour. Wash the cells with PBS containing 0.05% TWEEN® 20 (2×) and block with 3% BSA in PBS containing 0.05% TWEEN® 20 and 0.1% TRITON™ X-100 (20 μL/well) for 1 hour at room temperature. Add 1:500 Primary antibody (20 μL) (ERα (Clone SP1) monoclonal rabbit antibody # RM-9101-S, Thermo Scientific) dilution in 1% BSA in PBS containing 0.05% TWEEN® 20 per well, seal the plates and incubate overnight at 4° C. The following day wash the cells with PBS containing 0.05% TWEEN® 20 (2×) and incubate with secondary antibody (20 μL/well) (1:1000 dilution, Goat anti-rabbit IgM ALEXA FLUOR™ 488) in PBS 1% BSA for 105 minutes at room temperature. […] Seal the plates and incubate 1 hour at room temperature on the bench (preserved from light). Scan the plates with ACUMEN EXPLORER™ [Laser-scanning fluorescence microplate cytometer manufactured by TTP LABTECH LTD] to measure ERα. Image analysis is based on cellular fluorescent signals for identifying positive cells. Identify ER positive cells by mean intensity. Use total intensity at 575-640 nm from propidium iodide/DNA to identify individual cells. Assay output is % ER positive cells. Determine the IC50 by curve fitting to a four parameter logistic for each output using GENE DATA™.

[3] = target: T1, ERα; assay: PRα inhibition (ERα functional antagonism) cell assay in MCF7 cells; type: cell-based; settings: MCF7 cells pretreated with 0.47 nM estradiol, % PRα positive cells; read-out: Relative IC50
Text: The purpose of the following PRα inhibition (ERα functional antagonism) cell assay is to determine the antagonistic activity of a test compound against the ERα receptor. An antagonist in this assay is expected to block the function of the ERα receptor.
Carry out the assay conditions as detailed in the ERα degradation Cell base Acumen assay above, using the MCF7 cell line except that, prior to test compound dispensing, remove the media from the cell plate and pretreat all wells except for the negative control wells (column 24 of the plate) with assay media containing 0.47 nM estradiol for 30 minutes. In this assay, carry out immunostaining for the detection of PRα and scan the plates with ACUMEN EXPLORER™ [Laser-scanning fluorescence microplate cytometer manufactured by TTP LABTECH LTD] to measure PRα. Image analysis is based on cellular fluorescent signals for identifying positive cells. Identify PRα positive cells by mean intensity. Use total intensity at 575-640 from propidium iodide/DNA to identify individual cells. Assay output is % PRα positive cells. Determine the IC50 by curve fitting to a four parameter logistic for each output using GENE DATA™.

[4] = system: MCF7 ESR1 Y537N mutant cells; assay: Cell proliferation assay in MCF7-ESR1 Y537N-682; type: cell-based, human; settings: seven days, read-out: Relative IC50 (μM) MCF7 ESR1 Y537N mutant cells
Procedure: Seed MCF7 (purchased from ATCC HTB-22) cells at a density of 2,000 cells per well in DMEM phenol red free media 10% FBS (20 μL volume) (charcoal stripped) into a clear bottom 384-well cell culture plate. Plate MCF7-ESRY537N-682 (generated by CRISPR/Cas9 gene editing of ESr1 gene in MCF7 cells, clone #682) in DMEM media supplemented with 10% FBS, and 1% penicillin/streptomycin antibiotics at a density of 1000 cells per well. Incubate the plates at 37° C. and 5% CO2. The following day dose the cells with the test compound. Use an Echo 555 acoustic dispenser to prepare test compound serial dilutions (1:3) in a range from 60 μM to 0.003 μM. Dose the cells with the addition of 5 μL from the serial dilution plate to the cell plate, producing a final DMSO concentration of 0.2% with a final test compound concentration dose range between 20 and 0.001 μM. For the maximum point use media containing 0.2% of DMSO and for the minimum point use fulvestrant diluted at 2 μM final concentrations in the growth media containing 0.2% DMSO. After dosing with the test compound, incubate the cell plates at 37° C. and 5% CO2. Seven days after test compound addition, remove the plates from the incubator and add cold EtOH 96% (65 μL) to each well. […] Seal the plates and incubate 1 hour at room temperature on the bench (preserved from light). Scan the plates with ACUMEN EXPLORER™ [Laser-scanning fluorescence microplate cytometer manufactured by TTP LABTECH LTD].

Sequence of ERα (Y537S mutant) (P03372 whole entry Y537S): as the sequence (P03372 whole entry) above, with Y537S counted along it

| SMILES | Ki [1] [nM] | DC50 [2] [nM] | IC50 [3] [nM] | IC50 ([4]; Homo sapiens, MCF7, […]) [µM] | IC50 [4] [µM] |
| --- | --- | --- | --- | --- | --- |
| Oc1ccc2c3c(cnc2c1)-c1cccc(C(F)(F)F)c1OC3c1ccc(OCCN2CC(CF)C2)cc1 (racemic) [Example 2, 5-(4-{2-[3-(fluoromethyl)azetidin-1-yl]ethoxy}phenyl)-7-(trifluoromethyl)-5H-[1]benzopyrano[4,3-c]quinolin-2-ol] | 6.78 | 52.2 ± 6.51 | 163 | 0.0511 | – |
| Oc1ccc2c3c(cnc2c1)-c1cccc(Cl)c1OC3c1ccc(OCCN2CC(CF)C2)cc1 (racemic) [Example 4, 7-chloro-5-(4-{2-[3-(fluoromethyl)azetidin-1-yl]ethoxy}phenyl)-5H-[1]benzopyrano[4,3-c]quinolin-2-ol] | 12.1 | 22.4 ± 0.355 | 76.3 ± 168 | 0.0266 | – |
| Oc1ccc2c3c(cnc2c1)-c1ccc(F)cc1OC3c1ccc(OCCN2CC(CF)C2)cc1 (racemic) [Example 5, 8-fluoro-5-(4-{2-[3-(fluoromethyl)azetidin-1-yl]ethoxy}phenyl)-5H-[1]benzopyrano[4,3-c]quinolin-2-ol] | 19.5 | 36.5 ± 37.4 | 118 ± 12.3 | 0.0725 ± 0.0263 | – |
| Oc1ccc2c3c(cnc2c1)-c1cccc(F)c1OC3c1ccc(OCCN2CC(CF)C2)cc1 (racemic) [Example 6, 7-fluoro-5-(4-{2-[3-(fluoromethyl)azetidin-1-yl]ethoxy}phenyl)-5H-[1]benzopyrano[4,3-c]quinolin-2-ol] | 15.8 | 50.9 ± 6.89 | 82.6 ± 5.68 | 0.0236 | – |
| Cc1ccc2c(c1)OC(c1ccc(OCCN3CC(CF)C3)cc1)c1c-2cnc2cc(O)ccc12 (racemic) [Example 7, 5-(4-{2-[3-(fluoromethyl)azetidin-1-yl]ethoxy}phenyl)-8-methyl-5H-[1]benzopyrano[4,3-c]quinolin-2-ol] | 8.55 | 78.8 ± 7.38 | 113 ± 20.9 | 0.0448 ± 0.0119 | – |
| Cc1cccc2c1OC(c1ccc(OCCN3CC(CF)C3)cc1)c1c-2cnc2cc(O)ccc12 (racemic) [Example 8, 5-(4-{2-[3-(fluoromethyl)azetidin-1-yl]ethoxy}phenyl)-7-methyl-5H-[1]benzopyrano[4,3-c]quinolin-2-ol] | 11.4 | 17.4 ± 8.75 | 68.3 ± 22.7 | 0.0329 ± 0.003 | – |
| Oc1ccc2c3c(cnc2c1)-c1ccc(C(F)(F)F)cc1OC3c1ccc(OCCN2CC(CF)C2)cc1 (single isomer, unassigned) [Example 1B, 5-(4-{2-[3-(Fluoromethyl)azetidin-1-yl]ethoxy}phenyl)-8-(trifluoromethyl)-5H-[1]benzopyrano[4,3-c]quinolin-2-ol] | – | – | – | – | 0.0167 ± 0.0091 |
| Oc1ccc2c3c(cnc2c1)-c1cccc(C(F)(F)F)c1OC3c1ccc(OCCN2CC(CF)C2)cc1 (single isomer, unassigned) [Example 2A, 5-(4-{2-[3-(Fluoromethyl)azetidin-1-yl]ethoxy}phenyl)-7-(trifluoromethyl)-5H-[1]benzopyrano[4,3-c]quinolin-2-ol] | 7.92 | 51.2 ± 16.3 | 121 ± 53.7 | – | 0.0428 ± 0.00267 |
| Oc1ccc2c3c(cnc2c1)-c1cccc(C(F)(F)F)c1OC3c1ccc(OCCN2CC(CF)C2)cc1 (single isomer, unassigned) [Example 2B, 5-(4-{2-[3-(Fluoromethyl)azetidin-1-yl]ethoxy}phenyl)-7-(trifluoromethyl)-5H-[1]benzopyrano[4,3-c]quinolin-2-ol] | 294 | > 2000 | > 2000 | – | 0.778 |
| Oc1ccc2c3c(cnc2c1)-c1cccc(Cl)c1OC3c1ccc(OCCN2CC(CF)C2)cc1 (single isomer, unassigned) [Example 4A, 7-Chloro-5-(4-{2-[3-(fluoromethyl)azetidin-1-yl]ethoxy}phenyl)-5H-[1]benzopyrano[4,3-c]quinolin-2-ol] | 55 | 500 | 846 | – | 0.544 ± 0.218 |
| Oc1ccc2c3c(cnc2c1)-c1cccc(Cl)c1OC3c1ccc(OCCN2CC(CF)C2)cc1 (single isomer, unassigned) [Example 4B, 7-Chloro-5-(4-{2-[3-(fluoromethyl)azetidin-1-yl]ethoxy}phenyl)-5H-[1]benzopyrano[4,3-c]quinolin-2-ol] | 2.34 | 6.89 | 28.7 | – | 0.0143 ± 0.00492 |
| Oc1ccc2c3c(cnc2c1)-c1ccc(F)cc1OC3c1ccc(OCCN2CC(CF)C2)cc1 (single isomer, unassigned) [Example 5A, 8-Fluoro-5-(4-{2-[3-(fluoromethyl)azetidin-1-yl]ethoxy}phenyl)-5H-[1]benzopyrano[4,3-c]quinolin-2-ol] | 81.2 | 522 | 600 | – | 0.517 ± 0.095 |
| Oc1ccc2c3c(cnc2c1)-c1ccc(F)cc1OC3c1ccc(OCCN2CC(CF)C2)cc1 (single isomer, unassigned) [Example 5B, 8-Fluoro-5-(4-{2-[3-(fluoromethyl)azetidin-1-yl]ethoxy}phenyl)-5H-[1]benzopyrano[4,3-c]quinolin-2-ol] | 6.56 | 9.49 ± 1.1 | 32 ± 5.31 | – | 0.0213 ± 0.013 |
| Oc1ccc2c3c(cnc2c1)-c1cccc(F)c1OC3c1ccc(OCCN2CC(CF)C2)cc1 (single isomer, unassigned) [Example 6A, 7-Fluoro-5-(4-{2-[3-(fluoromethyl)azetidin-1-yl]ethoxy}phenyl)-5H-[1]benzopyrano[4,3-c]quinolin-2-ol] | 46 | 175 | 253 | – | 0.323 ± 0.176 |
